For one test, the target named is BTK^C481S (Homo sapiens (Human), UniProt Q06187, C481S). The test is described as follows: BTK^C481S binding affinity (TR-FRET, LanthaScreen). Conditions: 5 h incubation. On the procedure:
(§1) BTK^C481S binding affinity of each compound tested was determined using a time-resolved fluorescence resonance energy transfer (TR-FRET) methodology. 5 nM Recombinant […] kinase, varying concentrations of inhibitor, 2 nM LanthaScreen™ Eu anti-His Antibody and 30 nM Kinase Tracer 236 was incubated in 1× LanthaScreen™ Kinase Buffer A for 5 h. Recombinant BTK^C481S kinase was purchased from SignalChem and all LanthaScreen™ components were purchased from Invitrogen. Measurements were performed in a reaction volume of 30 μL using half-area 96-well assay plates. The TR-FRET signal was read on a plate reader with an excitation wavelength of 340 nm and detection wavelengths of 615 and 665 nm. Binding affinity was determined for each compound by measuring TR-FRET signal at various concentrations of compound and plotting the relative fluorescence units against the inhibitor concentration to estimate the IC50 from log [Inhibitor] vs response using the Variable Slope model in Graphpad prism from Graphpad software (SanDiego, Calif.).

Test [1] concerns OCI-Ly10 human DLBCL cells. The test is described as follows: OCI-Ly10 anti-proliferative activity (Resazurin, 72 h). It is filed as cell-based. Conditions: read-out: Proliferation OCI-Ly10-IC50. On the procedure:
Compounds were assayed for effects on the growth of OCI-Ly10 human DLBCL cells that are dependent on NFκB signalling. OCI-Ly10 cells were grown in suspension in T225 flasks, centrifuged and re-suspended in 2.5% FBS containing media. Cells were then plated at 7.5×10^3 cells per well in 96-well plates in varying concentrations of compound and incubated for 72 h at 37° C. An additional plate of cells to be used as the Day 0 read was seeded without compound addition, Resazurin was added to each well, incubated for 5 h and the fluorescence measured at 590 nm. After 72 h of compound treatment, Resazurin was added to each well of the compound treated plates, incubated for 5 h and the fluorescence measured at 590 nm. The IC50 was then calculated by subtracting the average Day 0 value from each well value from the treated plates, each treatment was then calculated as a percentage of the DMSO control and the percentages plotted against the inhibitor concentration to estimate the IC50 from log [Inhibitor] vs response using the Variable Slope model in Graphpad prism from Graphpad software (SanDiego, Calif.).
(In general: Alamar Blue is a resazurin reagent that responds to reducing activity.)

The target of a further test is BTK^WT (Homo sapiens (Human), UniProt Q06187). The test is described as follows: BTK^WT binding affinity (TR-FRET, LanthaScreen). On the procedure:
as §1, with “BTK^WT binding” for “BTK^C481S binding”, “methodology. 2.5” for “methodology. 5”, “and 15” for “and 30”, “Recombinant BTK” for “Recombinant BTK^C481S”, “kinase” for “kinase was purchased from SignalChem”
Background: TR-FRET usually uses a lanthanide donor and a delayed reading to cut background.

The target of the next test is EGFR (Homo sapiens (Human), UniProt P00533). The experiment in a line: EGFR binding affinity (TR-FRET, LanthaScreen). The note with it: 5 h incubation. On the procedure: EGFR binding affinity was determined using a time-resolved fluorescence resonance energy transfer (TR-FRET) methodology. 2.5 nM Recombinant EGFR, varying concentrations of inhibitor, 2 nM LanthaScreen™ Eu anti-GST Antibody and 3 nM Kinase Tracer 199 was incubated in 1× LanthaScreen™ Kinase Buffer A for 5 h. Recombinant EGFR and all LanthaScreen™ components were purchased from Invitrogen. Measurements were performed in a reaction volume of 30 μL using half-area 96-well assay plates. The TR-FRET signal was read on a plate reader with an excitation wavelength of 340 nm and detection wavelengths of 615 and 665 nm. Binding affinity was determined for each compound by measuring TR-FRET signal at various concentrations of compound and plotting the relative fluorescence units against the inhibitor concentration to estimate the IC50 from log [Inhibitor] vs response using the Variable Slope model in Graphpad prism from Graphpad software (SanDiego, Calif.).
Chain of EGFR (P00533 25-1210): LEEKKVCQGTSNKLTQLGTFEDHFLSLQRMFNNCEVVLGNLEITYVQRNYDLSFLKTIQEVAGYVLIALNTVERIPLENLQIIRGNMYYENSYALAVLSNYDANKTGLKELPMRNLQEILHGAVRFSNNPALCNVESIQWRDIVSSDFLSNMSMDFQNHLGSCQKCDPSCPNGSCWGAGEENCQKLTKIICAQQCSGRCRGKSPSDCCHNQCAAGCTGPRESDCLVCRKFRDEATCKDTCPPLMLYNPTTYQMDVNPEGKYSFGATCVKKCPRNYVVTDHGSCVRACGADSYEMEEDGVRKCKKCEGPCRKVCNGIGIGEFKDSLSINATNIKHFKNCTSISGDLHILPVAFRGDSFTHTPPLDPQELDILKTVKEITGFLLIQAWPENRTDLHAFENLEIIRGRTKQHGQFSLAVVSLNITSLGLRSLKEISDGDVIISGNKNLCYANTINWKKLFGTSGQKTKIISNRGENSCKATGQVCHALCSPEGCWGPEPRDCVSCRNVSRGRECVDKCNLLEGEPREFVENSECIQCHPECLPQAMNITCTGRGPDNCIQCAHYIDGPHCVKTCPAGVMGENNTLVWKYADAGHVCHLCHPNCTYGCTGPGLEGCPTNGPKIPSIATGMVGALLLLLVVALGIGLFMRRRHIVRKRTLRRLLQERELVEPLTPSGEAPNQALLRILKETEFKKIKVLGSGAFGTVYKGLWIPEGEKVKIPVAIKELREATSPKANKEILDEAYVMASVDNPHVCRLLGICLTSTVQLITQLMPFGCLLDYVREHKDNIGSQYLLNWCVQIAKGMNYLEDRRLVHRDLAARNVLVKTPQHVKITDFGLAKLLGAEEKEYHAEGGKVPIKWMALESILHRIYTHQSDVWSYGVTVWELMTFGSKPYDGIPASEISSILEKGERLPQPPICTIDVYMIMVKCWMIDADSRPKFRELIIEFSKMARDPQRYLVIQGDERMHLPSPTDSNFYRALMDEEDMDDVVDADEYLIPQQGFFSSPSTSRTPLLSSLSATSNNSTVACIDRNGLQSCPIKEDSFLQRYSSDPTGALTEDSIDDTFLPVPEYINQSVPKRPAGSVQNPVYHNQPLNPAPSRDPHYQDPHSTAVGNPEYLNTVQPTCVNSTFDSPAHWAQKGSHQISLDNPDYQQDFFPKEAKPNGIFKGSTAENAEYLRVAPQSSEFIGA

[2] abbreviates: TR-FRET binding, 5 h incubation, read-out: BTK^WT IC50.
Where [3] appears, read: Table 6, numeric values, read-out: BTK Binding IC50.

Read-outs that look alike come from different tables or passages of the source. Where only a bound is given, the exact number is not on record here.

Chain of BTK^WT (Q06187 whole entry): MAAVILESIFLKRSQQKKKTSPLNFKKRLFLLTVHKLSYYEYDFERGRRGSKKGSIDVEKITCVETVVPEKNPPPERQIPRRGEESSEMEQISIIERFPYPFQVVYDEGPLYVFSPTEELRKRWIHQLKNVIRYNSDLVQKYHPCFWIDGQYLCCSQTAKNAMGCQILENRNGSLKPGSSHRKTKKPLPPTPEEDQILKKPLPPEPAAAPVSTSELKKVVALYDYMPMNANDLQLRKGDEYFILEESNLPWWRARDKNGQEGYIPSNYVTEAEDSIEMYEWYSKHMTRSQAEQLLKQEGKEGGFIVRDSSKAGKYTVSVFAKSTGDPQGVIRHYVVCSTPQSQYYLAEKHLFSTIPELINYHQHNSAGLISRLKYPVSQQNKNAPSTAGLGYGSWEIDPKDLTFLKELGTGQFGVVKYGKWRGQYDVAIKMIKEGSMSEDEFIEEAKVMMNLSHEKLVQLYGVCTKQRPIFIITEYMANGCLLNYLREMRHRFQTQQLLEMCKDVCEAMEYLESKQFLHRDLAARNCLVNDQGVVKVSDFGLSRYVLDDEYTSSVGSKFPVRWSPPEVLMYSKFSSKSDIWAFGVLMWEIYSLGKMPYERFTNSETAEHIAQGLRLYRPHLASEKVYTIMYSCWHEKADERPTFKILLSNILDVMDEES
Chain of BTK^C481S (Q06187 whole entry C481S): as the sequence (Q06187 whole entry) above, with C481S counted along it

`COc1ccccc1C(=O)NCc1ccc(-c2nn([C@@H]3CC[C@H](O)C3)c3ncnc(N)c23)cc1` (relative stereo) [Example 24, N-[[4-[4-amino-1-[(1R*,3S*)-3-hydroxycyclopentyl]pyrazolo[3,4-d]pyrimidin-3-yl]phenyl]methyl]-2-methoxy-benzamide]: the IC50 at BTK^C481S is at most 10 nM; in test [1] (Homo sapiens, OCI-Ly10, 72 h), 10 to 100 nM; at BTK^WT (setting [2]), at most 10 nM; at BTK^WT (setting [3]), 2.2 nM; on EGFR, 100 to 1000 nM.
Consider `COc1ccccc1C(=O)NCc1ccc(-c2nn(C3CCC(O)CC3)c3ncnc(N)c23)cc1` (single isomer, unassigned) [Example 23-isomer1, N-[[4-[4-amino-1-(4-hydroxycyclohexyl)pyrazolo[3,4-d]pyrimidin-3-yl]phenyl]methyl]-2-methoxy-benzamide], for which the IC50 at BTK^C481S was at most 10 nM; in test [1], 100 to 1000 nM; on BTK^WT (setting [2]) it was at most 10 nM; on EGFR, 100 to 1000 nM.
Regarding `COc1ccccc1C(=O)NCc1ccc(-c2nn(C3CCC(O)CC3)c3ncnc(N)c23)cc1` (single isomer, unassigned) [Example 23-isomer2, N-[[4-[4-amino-1-(4-hydroxycyclohexyl)pyrazolo[3,4-d]pyrimidin-3-yl]phenyl]methyl]-2-methoxy-benzamide], the IC50 on BTK^C481S is at most 10 nM; in test [1], 10 to 100 nM; on BTK^WT (setting [2]) it was at most 10 nM; at BTK^WT (setting [3]), 0.4 nM; at EGFR it was 100 to 1000 nM.
Regarding `COc1ccccc1C(=O)NCc1ccc(-c2nn(C3CCC(C)(O)CC3)c3ncnc(N)c23)cc1` (single isomer, unassigned) [Example 91, N-[[4-[4-amino-1-(4-hydroxy-4-methyl-cyclohexyl)pyrazolo[3,4-d]pyrimidin-3-yl]phenyl]methyl]-2-methoxy-benzamide], the IC50 is at most 10 nM on BTK^C481S, 100 to 1000 nM in test [1], at most 10 nM on BTK^WT (setting [2]) and 100 to 1000 nM at EGFR.
`COc1ccccc1C(=O)NCc1ccc(-c2nn(C3CCC(C)(O)CC3)c3ncnc(N)c23)cc1` (single isomer, unassigned) [Example 92, N-[[4-[4-Amino-1-(4-hydroxy-4-methyl-cyclohexyl)pyrazolo[3,4-d]pyrimidin-3-yl]phenyl]methyl]-2-methoxy-benzamide]: the IC50 at BTK^C481S is at most 10 nM; in test [1], 10 to 100 nM; on BTK^WT (setting [2]), at most 10 nM; at EGFR it was 100 to 1000 nM.
As for `COc1ccc(F)cc1C(=O)NCc1ccc(-c2nn(C3CCC(C)(O)CC3)c3ncnc(N)c23)cc1` (single isomer, unassigned) [Example 94, N-[[4-[4-Amino-1-(4-hydroxy-4-methyl-cyclohexyl)pyrazolo[3,4-d]pyrimidin-3-yl]phenyl]methyl]-5-fluoro-2-methoxy-benzamide], the IC50 on BTK^C481S was at most 10 nM; in test [1] (Homo sapiens, OCI-Ly10, 72 h), 10 to 100 nM; at BTK^WT (setting [2]) it was at most 10 nM; at EGFR it was 100 to 1000 nM.
For `COc1ccccc1C(=O)NCc1ccc(-c2nn(C3CCCC3)c3ncnc(N)c23)cc1` [Example 1, N-[[4-(4-amino-1-cyclopentyl-pyrazolo[3,4-d]pyrimidin-3-yl)phenyl]methyl]-2-methoxy-benzamide], the IC50 at BTK^C481S is at most 10 nM; in test [1] (Homo sapiens, OCI-Ly10, 72 h), 10 to 100 nM; on BTK^WT (setting [2]), at most 10 nM.
As for `Nc1ncnc2c1c(-c1ccc(CNC(=O)c3ccccc3F)cc1)nn2C1CCCC1` [Example 2, N-[[4-(4-amino-1-cyclopentyl-pyrazolo[3,4-d]pyrimidin-3-yl)phenyl]methyl]-2-fluoro-benzamide], the IC50 in test [1] (Homo sapiens, OCI-Ly10, 72 h) is 1000 to 10000 nM; on EGFR, 10 to 100 nM.
For `COc1cc(Cl)ccc1C(=O)NCc1ccc(-c2nn(C3CCCC3)c3ncnc(N)c23)cc1` [Example 9, N-[[4-(4-amino-1-cyclopentyl-pyrazolo[3,4-d]pyrimidin-3-yl)phenyl]methyl]-4-chloro-2-methoxy-benzamide] the same measures were 100 to 1000 nM and over 10000 nM.
For `COc1cc(C)ccc1C(=O)NCc1ccc(-c2nn(C3CCCC3)c3ncnc(N)c23)cc1` [Example 10, N-[[4-(4-amino-1-cyclopentyl-pyrazolo[3,4-d]pyrimidin-3-yl)phenyl]methyl]-2-methoxy-4-methyl-benzamide] the same measures were 100 to 1000 nM and over 10000 nM.
Turning to `COc1ccc(C(F)(F)F)cc1C(=O)NCc1ccc(-c2nn(C3CCCC3)c3ncnc(N)c23)cc1` [Example 13, N-[[4-(4-amino-1-cyclopentyl-pyrazolo[3,4-d]pyrimidin-3-yl)phenyl]methyl]-2-methoxy-5-(trifluoromethyl)benzamide], the IC50 in test [1] (Homo sapiens, OCI-Ly10, 72 h) is 100 to 1000 nM; on BTK^WT (setting [2]), 100 to 1000 nM; at EGFR, over 10000 nM.
As to `COc1c(F)cccc1C(=O)NCc1ccc(-c2nn(C3CCCC3)c3ncnc(N)c23)cc1` [Example 14, N-[[4-(4-amino-1-cyclopentyl-pyrazolo[3,4-d]pyrimidin-3-yl)phenyl]methyl]-3-fluoro-2-methoxy-benzamide], the IC50 in test [1] (Homo sapiens, OCI-Ly10, 72 h) lay within 100 to 1000 nM; on EGFR, 1000 to 10000 nM.
As to `COc1cc(F)ccc1C(=O)NCc1ccc(-c2nn(C3CCCC3)c3ncnc(N)c23)cc1` [Example 15, N-[[4-(4-amino-1-cyclopentyl-pyrazolo[3,4-d]pyrimidin-3-yl)phenyl]methyl]-4-fluoro-2-methoxy-benzamide], the IC50 in test [1] (Homo sapiens, OCI-Ly10, 72 h) was 10 to 100 nM; at EGFR, 1000 to 10000 nM.
The like results for `COc1cccc(F)c1C(=O)NCc1ccc(-c2nn(C3CCCC3)c3ncnc(N)c23)cc1` [Example 16, N-[[4-(4-amino-1-cyclopentyl-pyrazolo[3,4-d]pyrimidin-3-yl)phenyl]methyl]-2-fluoro-6-methoxy-benzamide] were, in that order, 1000 to 10000 nM and 1000 to 10000 nM.
As to `COc1ncccc1C(=O)NCc1ccc(-c2nn(C3CCCC3)c3ncnc(N)c23)cc1` [Example 18, N-[[4-(4-amino-1-cyclopentyl-pyrazolo[3,4-d]pyrimidin-3-yl)phenyl]methyl]-2-methoxy-pyridine-3-carboxamide], the IC50 at BTK^C481S was 10 to 100 nM; in test [1] (Homo sapiens, OCI-Ly10, 72 h), 100 to 1000 nM; on BTK^WT (setting [2]), 10 to 100 nM.
In the case of `COc1ccccc1C(=O)NC(C)c1ccc(-c2nn(C3CCCC3)c3ncnc(N)c23)cc1` (stereo not drawn) [Example 64, N-[1-[4-(4-amino-1-cyclopentyl-pyrazolo[3,4-d]pyrimidin-3-yl)phenyl]ethyl]-2-methoxy-benzamide], the IC50 in test [1] (Homo sapiens, OCI-Ly10, 72 h) fell in the range of 1000 to 10000 nM; at EGFR, 1000 to 10000 nM.
With `COc1cc(-c2nn(C3CCCC3)c3ncnc(N)c23)ccc1CNC(=O)c1ccccc1OC` [Example 75, N-[[4-(4-Amino-1-cyclopentyl-pyrazolo[3,4-d]pyrimidin-3-yl)-2-methoxy-phenyl]methyl]-2-methoxy-benzamide], the IC50 on BTK^C481S was at most 10 nM; in test [1] (Homo sapiens, OCI-Ly10, 72 h) it was 10 to 100 nM; at BTK^WT (setting [2]) it was at most 10 nM.
As to `CC(C)c1ccccc1C(=O)NCc1ccc(-c2nn(C3CCCC3)c3ncnc(N)c23)cc1` [Example 80, N-[[4-(4-amino-1-cyclopentyl-pyrazolo[3,4-d]pyrimidin-3-yl)phenyl]methyl]-2-isopropyl-benzamide], the IC50 in test [1] (Homo sapiens, OCI-Ly10, 72 h) lay within 1000 to 10000 nM; on EGFR it was 1000 to 10000 nM.

Values taken from patent publication US10399989B2, “Pyrazolopyrimidine derivatives as BTK inhibitors for the treatment of cancer” (Loxo Oncology, Inc., priority 2016, dated 2019).
